In publication PMC4979471 (Cell Death Discovery, 2015):
“Also recorded” adds a separate entry of the source. Like-named read-outs stand apart in the source and are kept apart here.

Columns and labels:
C57BL/6 mice = test: TNF+zVAD-induced shock model (temperature loss); type: in vivo, mouse; conditions: 15 min before TNF+zVAD
Method: Temperature was monitored over the course of 3 h by rectal probe.

BMDM = test: TNF+cycloheximide-stimulated apoptosis (cell viability, Caspase 3/7); type: cell-based, mouse; conditions: 100 nM
Method: Caspase 3/7 activity was measured at 6 h using the Caspase-Glo 3/7 assay (Promega).

GCK/MAP4K2 = biological target: T1, GCK/MAP4K2 (Homo sapiens, UniProt Q12851); test: Kinase selectivity, P33-radiolabeled assay; type: biochemical; conditions: 10 μM ATP
T1 construct: purchased Reaction Biology Corp
T1 sequence (Q12851 1-820): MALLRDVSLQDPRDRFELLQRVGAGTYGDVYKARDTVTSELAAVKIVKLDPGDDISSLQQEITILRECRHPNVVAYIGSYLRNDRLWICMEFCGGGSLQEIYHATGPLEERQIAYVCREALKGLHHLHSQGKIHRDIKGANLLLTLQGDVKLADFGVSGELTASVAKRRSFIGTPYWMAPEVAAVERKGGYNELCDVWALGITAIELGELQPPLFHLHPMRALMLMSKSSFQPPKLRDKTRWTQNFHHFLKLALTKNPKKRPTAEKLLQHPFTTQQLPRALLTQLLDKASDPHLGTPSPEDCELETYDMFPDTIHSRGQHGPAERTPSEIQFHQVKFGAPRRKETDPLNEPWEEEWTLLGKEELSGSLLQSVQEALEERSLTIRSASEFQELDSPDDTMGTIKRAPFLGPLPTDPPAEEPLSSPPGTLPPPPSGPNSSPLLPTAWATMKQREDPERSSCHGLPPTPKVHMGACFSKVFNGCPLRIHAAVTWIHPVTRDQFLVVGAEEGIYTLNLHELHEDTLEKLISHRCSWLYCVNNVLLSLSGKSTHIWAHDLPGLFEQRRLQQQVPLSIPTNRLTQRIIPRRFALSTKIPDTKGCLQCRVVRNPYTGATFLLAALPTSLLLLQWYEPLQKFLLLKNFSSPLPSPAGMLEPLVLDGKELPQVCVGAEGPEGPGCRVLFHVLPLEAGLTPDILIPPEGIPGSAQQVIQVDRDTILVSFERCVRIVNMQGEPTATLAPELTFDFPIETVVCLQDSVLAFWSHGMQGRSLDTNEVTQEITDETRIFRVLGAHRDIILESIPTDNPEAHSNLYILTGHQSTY
Method: (§1) The compound was tested at a single dose in duplicate at 10 μM. Reactions were carried out at 10 μM ATP. Data are reported as % enzyme activity (relative to DMSO controls). The full data set is shown in the Supplementary Table I.

p70S6K/RPS6KB1 = biological target: T2, p70S6K/RPS6KB1 (Homo sapiens, UniProt P23443); test: Kinase selectivity, P33-radiolabeled assay; type: biochemical; conditions: 10 μM ATP
T2 construct: purchased Reaction Biology Corp
T2 sequence (P23443 whole entry): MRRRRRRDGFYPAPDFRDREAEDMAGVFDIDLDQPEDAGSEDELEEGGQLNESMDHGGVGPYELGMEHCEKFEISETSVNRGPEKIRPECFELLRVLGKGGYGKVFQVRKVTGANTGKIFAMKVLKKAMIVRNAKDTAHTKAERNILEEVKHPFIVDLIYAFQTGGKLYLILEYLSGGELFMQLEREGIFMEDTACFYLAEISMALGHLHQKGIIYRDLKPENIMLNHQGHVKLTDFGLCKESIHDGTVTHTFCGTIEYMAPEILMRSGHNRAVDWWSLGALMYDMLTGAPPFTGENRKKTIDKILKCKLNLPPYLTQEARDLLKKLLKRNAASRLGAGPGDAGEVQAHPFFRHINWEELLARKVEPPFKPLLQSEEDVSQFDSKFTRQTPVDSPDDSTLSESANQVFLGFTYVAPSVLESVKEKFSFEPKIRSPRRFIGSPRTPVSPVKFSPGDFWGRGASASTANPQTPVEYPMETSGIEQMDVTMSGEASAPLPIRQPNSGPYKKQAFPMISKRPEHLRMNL
Method: as §1

CDK4/cyclin D1 = biological target: T3, CDK4/cyclin D1 (Homo sapiens, UniProt P11802); test: Kinase selectivity, P33-radiolabeled assay; type: biochemical; conditions: 10 μM ATP
T3 construct: purchased Reaction Biology Corp
T3 sequence (P11802 whole entry): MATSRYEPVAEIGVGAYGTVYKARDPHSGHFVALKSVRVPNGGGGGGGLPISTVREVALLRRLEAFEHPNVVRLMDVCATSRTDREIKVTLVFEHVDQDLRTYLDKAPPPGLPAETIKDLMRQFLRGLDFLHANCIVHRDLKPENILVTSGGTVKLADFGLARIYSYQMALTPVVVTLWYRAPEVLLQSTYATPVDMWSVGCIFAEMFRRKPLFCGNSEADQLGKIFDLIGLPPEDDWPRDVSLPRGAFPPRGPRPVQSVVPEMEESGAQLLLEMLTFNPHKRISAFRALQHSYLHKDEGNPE
T3 sequence (P24385 whole entry partner): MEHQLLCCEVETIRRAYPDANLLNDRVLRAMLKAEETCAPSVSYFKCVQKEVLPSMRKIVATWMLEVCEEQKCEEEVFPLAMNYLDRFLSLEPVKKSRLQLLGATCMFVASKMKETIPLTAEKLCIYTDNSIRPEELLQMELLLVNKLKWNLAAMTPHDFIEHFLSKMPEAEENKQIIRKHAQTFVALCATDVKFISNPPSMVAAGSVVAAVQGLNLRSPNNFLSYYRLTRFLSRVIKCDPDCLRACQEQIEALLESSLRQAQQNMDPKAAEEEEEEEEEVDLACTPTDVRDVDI
Method: as §1

AKT2 = biological target: T4, AKT2 (Homo sapiens, UniProt P31751); test: Kinase selectivity, P33-radiolabeled assay; type: biochemical; conditions: 10 μM ATP
T4 construct: purchased Reaction Biology Corp
T4 sequence (P31751 whole entry): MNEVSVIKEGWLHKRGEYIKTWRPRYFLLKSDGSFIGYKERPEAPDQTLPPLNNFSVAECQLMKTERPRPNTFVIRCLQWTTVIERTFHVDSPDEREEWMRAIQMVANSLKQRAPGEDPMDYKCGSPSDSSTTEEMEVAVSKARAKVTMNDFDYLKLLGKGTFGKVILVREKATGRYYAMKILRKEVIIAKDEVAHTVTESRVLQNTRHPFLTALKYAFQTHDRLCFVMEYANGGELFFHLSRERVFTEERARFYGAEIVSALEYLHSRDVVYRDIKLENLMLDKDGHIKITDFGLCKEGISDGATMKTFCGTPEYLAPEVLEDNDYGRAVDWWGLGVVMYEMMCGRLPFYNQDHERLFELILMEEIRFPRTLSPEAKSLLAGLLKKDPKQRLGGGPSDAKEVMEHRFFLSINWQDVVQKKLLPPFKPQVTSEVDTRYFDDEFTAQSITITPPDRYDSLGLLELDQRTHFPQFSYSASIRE
Method: as §1

KDR/VEGFR2 = biological target: T5, KDR/VEGFR2 (Homo sapiens, UniProt P35968); test: Kinase selectivity, P33-radiolabeled assay; type: biochemical; conditions: 10 μM ATP
T5 construct: purchased Reaction Biology Corp
T5 sequence (P35968 20-1356): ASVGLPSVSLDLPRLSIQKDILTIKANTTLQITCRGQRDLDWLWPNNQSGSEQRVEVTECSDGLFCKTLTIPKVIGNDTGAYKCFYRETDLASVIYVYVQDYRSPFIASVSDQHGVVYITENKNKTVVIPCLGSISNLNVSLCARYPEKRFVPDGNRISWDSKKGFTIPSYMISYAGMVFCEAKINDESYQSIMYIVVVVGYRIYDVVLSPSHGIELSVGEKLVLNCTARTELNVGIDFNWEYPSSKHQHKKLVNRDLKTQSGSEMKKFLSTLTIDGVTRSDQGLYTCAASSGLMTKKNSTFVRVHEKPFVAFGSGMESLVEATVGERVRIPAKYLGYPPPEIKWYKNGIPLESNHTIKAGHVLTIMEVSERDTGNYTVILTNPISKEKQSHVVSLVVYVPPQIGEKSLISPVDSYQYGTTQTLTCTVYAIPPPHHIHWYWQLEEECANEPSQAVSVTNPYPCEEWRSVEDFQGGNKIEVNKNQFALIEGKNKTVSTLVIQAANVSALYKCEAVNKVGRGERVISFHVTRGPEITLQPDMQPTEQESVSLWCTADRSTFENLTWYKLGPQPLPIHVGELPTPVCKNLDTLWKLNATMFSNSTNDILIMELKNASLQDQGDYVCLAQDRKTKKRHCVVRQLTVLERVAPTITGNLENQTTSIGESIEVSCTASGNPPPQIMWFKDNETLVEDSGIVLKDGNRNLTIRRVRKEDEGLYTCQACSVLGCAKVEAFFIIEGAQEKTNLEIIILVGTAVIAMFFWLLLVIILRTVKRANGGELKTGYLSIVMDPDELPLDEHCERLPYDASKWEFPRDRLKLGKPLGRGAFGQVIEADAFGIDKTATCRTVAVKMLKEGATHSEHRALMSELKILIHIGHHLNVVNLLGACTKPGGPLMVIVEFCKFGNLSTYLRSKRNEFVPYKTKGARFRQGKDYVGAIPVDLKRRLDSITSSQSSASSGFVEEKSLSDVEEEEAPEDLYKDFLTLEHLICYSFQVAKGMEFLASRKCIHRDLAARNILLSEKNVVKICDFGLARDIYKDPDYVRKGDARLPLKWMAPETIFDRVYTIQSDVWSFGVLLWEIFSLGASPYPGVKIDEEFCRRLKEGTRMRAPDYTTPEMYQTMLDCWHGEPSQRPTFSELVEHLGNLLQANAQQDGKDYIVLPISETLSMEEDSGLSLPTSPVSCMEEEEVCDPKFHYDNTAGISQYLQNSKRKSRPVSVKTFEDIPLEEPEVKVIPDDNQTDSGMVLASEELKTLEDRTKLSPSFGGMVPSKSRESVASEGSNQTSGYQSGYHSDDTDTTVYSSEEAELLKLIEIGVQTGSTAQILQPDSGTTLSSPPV
Method: as §1

JAK2 = biological target: T6, JAK2 (Homo sapiens, UniProt O60674); test: Kinase selectivity, P33-radiolabeled assay; type: biochemical; conditions: 10 μM ATP
T6 construct: purchased Reaction Biology Corp
T6 sequence (O60674 whole entry): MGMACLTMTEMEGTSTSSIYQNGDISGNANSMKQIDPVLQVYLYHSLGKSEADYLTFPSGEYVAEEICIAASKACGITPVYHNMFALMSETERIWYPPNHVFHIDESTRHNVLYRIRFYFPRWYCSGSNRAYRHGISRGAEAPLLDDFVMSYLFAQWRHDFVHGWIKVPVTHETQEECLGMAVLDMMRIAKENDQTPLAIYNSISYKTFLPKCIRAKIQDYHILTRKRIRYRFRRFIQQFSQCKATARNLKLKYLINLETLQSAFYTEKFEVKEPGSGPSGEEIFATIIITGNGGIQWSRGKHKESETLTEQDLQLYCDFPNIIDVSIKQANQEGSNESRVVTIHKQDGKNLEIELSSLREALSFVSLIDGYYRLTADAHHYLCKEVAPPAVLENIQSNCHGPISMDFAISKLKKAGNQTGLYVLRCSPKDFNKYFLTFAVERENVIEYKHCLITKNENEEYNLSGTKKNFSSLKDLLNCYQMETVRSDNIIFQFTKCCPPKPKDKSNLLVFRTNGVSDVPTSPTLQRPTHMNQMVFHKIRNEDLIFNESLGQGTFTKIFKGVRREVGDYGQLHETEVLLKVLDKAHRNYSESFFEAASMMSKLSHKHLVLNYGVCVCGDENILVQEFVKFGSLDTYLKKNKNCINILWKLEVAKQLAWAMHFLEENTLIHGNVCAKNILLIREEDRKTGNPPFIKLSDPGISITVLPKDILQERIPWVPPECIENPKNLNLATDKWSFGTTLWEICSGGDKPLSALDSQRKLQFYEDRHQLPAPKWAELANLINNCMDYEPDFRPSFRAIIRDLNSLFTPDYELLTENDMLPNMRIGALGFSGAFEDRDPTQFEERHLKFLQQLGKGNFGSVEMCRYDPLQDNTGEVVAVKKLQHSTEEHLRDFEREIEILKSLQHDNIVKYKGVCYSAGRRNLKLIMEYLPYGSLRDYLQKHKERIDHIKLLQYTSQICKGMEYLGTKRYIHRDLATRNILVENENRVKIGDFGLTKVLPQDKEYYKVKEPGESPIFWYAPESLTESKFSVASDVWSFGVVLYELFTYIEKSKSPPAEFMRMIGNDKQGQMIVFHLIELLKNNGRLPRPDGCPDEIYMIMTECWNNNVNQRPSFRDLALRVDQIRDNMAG
Method: as §1

SGK3/SGKL = biological target: T7, SGK3/SGKL (Homo sapiens, UniProt Q96BR1); test: Kinase selectivity, P33-radiolabeled assay; type: biochemical; conditions: 10 μM ATP
T7 construct: purchased Reaction Biology Corp
T7 sequence (Q96BR1 1-496): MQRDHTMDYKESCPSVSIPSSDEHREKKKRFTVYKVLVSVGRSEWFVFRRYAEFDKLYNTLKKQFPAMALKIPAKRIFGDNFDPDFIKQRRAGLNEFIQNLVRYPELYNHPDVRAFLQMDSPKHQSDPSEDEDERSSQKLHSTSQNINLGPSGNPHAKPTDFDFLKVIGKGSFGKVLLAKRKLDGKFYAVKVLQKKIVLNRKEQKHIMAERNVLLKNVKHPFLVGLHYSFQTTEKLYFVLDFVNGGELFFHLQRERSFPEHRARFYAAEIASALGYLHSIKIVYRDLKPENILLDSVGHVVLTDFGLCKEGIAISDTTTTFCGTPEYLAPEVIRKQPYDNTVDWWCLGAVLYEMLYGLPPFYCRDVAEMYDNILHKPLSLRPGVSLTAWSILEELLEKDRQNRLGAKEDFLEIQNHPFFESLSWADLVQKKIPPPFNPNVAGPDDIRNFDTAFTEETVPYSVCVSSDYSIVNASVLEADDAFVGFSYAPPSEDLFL
Method: as §1

IKKe/IKBKE = biological target: T8, IKKe/IKBKE (Homo sapiens, UniProt Q14164); test: Kinase selectivity, P33-radiolabeled assay; type: biochemical; conditions: 10 μM ATP
T8 construct: purchased Reaction Biology Corp
T8 sequence (Q14164 1-716): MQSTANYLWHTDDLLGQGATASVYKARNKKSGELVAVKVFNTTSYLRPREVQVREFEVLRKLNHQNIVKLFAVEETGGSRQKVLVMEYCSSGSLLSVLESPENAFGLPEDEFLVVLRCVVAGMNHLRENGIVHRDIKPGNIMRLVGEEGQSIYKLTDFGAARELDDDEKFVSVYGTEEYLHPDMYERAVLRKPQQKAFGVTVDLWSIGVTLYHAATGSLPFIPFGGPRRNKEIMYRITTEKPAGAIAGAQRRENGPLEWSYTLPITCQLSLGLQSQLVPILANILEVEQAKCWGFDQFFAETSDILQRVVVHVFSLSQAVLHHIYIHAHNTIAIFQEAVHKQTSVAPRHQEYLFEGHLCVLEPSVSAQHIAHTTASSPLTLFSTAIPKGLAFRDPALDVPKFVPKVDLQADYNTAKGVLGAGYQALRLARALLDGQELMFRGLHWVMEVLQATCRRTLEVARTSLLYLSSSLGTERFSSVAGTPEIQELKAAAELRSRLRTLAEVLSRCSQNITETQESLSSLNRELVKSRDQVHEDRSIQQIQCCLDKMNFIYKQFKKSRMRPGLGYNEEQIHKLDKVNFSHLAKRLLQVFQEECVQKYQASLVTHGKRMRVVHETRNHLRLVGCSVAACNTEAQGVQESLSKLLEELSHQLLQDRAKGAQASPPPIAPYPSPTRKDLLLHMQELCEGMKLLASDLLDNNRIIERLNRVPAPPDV
Method: as §1

[1] = read-out: % Enzyme Activity (relative to DMSO controls) AVG
[2] = read-out: % Enzyme Activity (relative to DMSO controls) Data 1
[3] = read-out: % Enzyme Activity (relative to DMSO controls) Data 2

Question: How did the “protection from TNF+zVAD-induced temperature loss” value (C57BL/6 mice; 0.2 mg/kg i.p.) turn out when `CC(C)(C)C(=O)N1N=CC[C@H]1c1ccccc1` [GSK′963] was run?
Answer: Its value is “significant response”.

Question: And the “protection from TNF+zVAD-induced temperature loss” value (C57BL/6 mice; 2 mg/kg i.p.)?
Answer: The value was “completely inhibit temperature loss; also recorded: complete protection”.

Question: What about the “effect on TNF+CHX-stimulated apoptosis” value (BMDM) of the same compound?
Answer: The value was “no measurable effects; also recorded: no effect”.

Question: And the remaining activity at 10 µM (GCK/MAP4K2; [1])?
Answer: The remaining activity at 10 µM was 109%.

Question: What about the remaining activity at 10 µM (GCK/MAP4K2; [2]) of the same compound?
Answer: The remaining activity at 10 µM was 108%.

Question: And the remaining activity at 10 µM (GCK/MAP4K2; [3])?
Answer: Its remaining activity at 10 µM is 110%.

Question: What about the remaining activity at 10 µM (p70S6K/RPS6KB1; [1]) of the same compound?
Answer: Its remaining activity at 10 µM is 99.1%.

Question: What about the remaining activity at 10 µM (p70S6K/RPS6KB1; [2]) of the same compound?
Answer: The remaining activity at 10 µM was 97.4%.

Question: What about the remaining activity at 10 µM (p70S6K/RPS6KB1; [3]) of the same compound?
Answer: Its remaining activity at 10 µM is 101%.

Question: What about the remaining activity at 10 µM (CDK4/cyclin D1; [1]) of the same compound?
Answer: The remaining activity at 10 µM was 96.7%.

Question: And the remaining activity at 10 µM (CDK4/cyclin D1; [2])?
Answer: The remaining activity at 10 µM was 94.5%.

Question: And the remaining activity at 10 µM (CDK4/cyclin D1; [3])?
Answer: The remaining activity at 10 µM was 98.9%.

Question: And the remaining activity at 10 µM (AKT2; [1])?
Answer: The remaining activity at 10 µM was 92.8%.

Question: And the remaining activity at 10 µM (AKT2; [2])?
Answer: The remaining activity at 10 µM was 91.7%.

Question: And the remaining activity at 10 µM (AKT2; [3])?
Answer: Its remaining activity at 10 µM is 93.9%.

Question: What about the remaining activity at 10 µM (KDR/VEGFR2; [1]) of the same compound?
Answer: Its remaining activity at 10 µM is 97.1%.

Question: What about the remaining activity at 10 µM (KDR/VEGFR2; [2]) of the same compound?
Answer: Its remaining activity at 10 µM is 96.8%.

Question: And the remaining activity at 10 µM (KDR/VEGFR2; [3])?
Answer: Its remaining activity at 10 µM is 97.5%.

Question: And the remaining activity at 10 µM (JAK2; [1])?
Answer: Its remaining activity at 10 µM is 105%.

Question: And the remaining activity at 10 µM (JAK2; [2])?
Answer: The remaining activity at 10 µM was 105%.

Question: And the remaining activity at 10 µM (JAK2; [3])?
Answer: Its remaining activity at 10 µM is 105%.

Question: What about the remaining activity at 10 µM (SGK3/SGKL; [1]) of the same compound?
Answer: Its remaining activity at 10 µM is 107%.

Question: And the remaining activity at 10 µM (SGK3/SGKL; [2])?
Answer: The remaining activity at 10 µM was 104%.

Question: What about the remaining activity at 10 µM (SGK3/SGKL; [3]) of the same compound?
Answer: Its remaining activity at 10 µM is 110%.

Question: What about the remaining activity at 10 µM (IKKe/IKBKE; [1]) of the same compound?
Answer: The remaining activity at 10 µM was 70%.

Question: What about the remaining activity at 10 µM (IKKe/IKBKE; [2]) of the same compound?
Answer: The remaining activity at 10 µM was 68.1%.

Question: And the remaining activity at 10 µM (IKKe/IKBKE; [3])?
Answer: Its remaining activity at 10 µM is 71.8%.
